The source of these data is patent publication US6262084A, “Compounds that inhibit the binding of integrins to their receptors” (Texas Biotechnology Corporation, priority 1999, dated 2001).

For the assay, the target named is T1, α4β1 integrin (Homo sapiens, UniProt P05556+P13612).
T1 construct: Ramos cells fluorescently labeled with calcein; endogenous in cells; host or cells: Ramos cells
Kind of assay: Inhibition of adhesion of calcein-labeled Ramos cells to CS1 (fibronectin) peptide-conjugated ovalbumin. Type of assay: cell-based. The conditions noted are these: for inhibition at 100 µM: Ramos, compound at a concentration of 100 μM, read-out: % A (percent inhibition of cell adhesion); for IC50: dose required to give 50% inhibition, Ramos cell adhesion to CS1-ovalbumin, 30 minutes at 37° C. Put shortly:
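Calcein-labelled Ramos cells (2.5×10^5/well) in TBS with 1 mM MgCl2, CaCl2 and MnCl2 adhered to CS1 peptide–ovalbumin coated at 5 μg/ml for 30 min at 37 °C, with or without compound. After washing, bound cells were lysed and read by fluorescence. IC50 is the dose giving 50% inhibition, and % inhibition was measured at 100 μM.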

T1 sequence (P13612 34-1032): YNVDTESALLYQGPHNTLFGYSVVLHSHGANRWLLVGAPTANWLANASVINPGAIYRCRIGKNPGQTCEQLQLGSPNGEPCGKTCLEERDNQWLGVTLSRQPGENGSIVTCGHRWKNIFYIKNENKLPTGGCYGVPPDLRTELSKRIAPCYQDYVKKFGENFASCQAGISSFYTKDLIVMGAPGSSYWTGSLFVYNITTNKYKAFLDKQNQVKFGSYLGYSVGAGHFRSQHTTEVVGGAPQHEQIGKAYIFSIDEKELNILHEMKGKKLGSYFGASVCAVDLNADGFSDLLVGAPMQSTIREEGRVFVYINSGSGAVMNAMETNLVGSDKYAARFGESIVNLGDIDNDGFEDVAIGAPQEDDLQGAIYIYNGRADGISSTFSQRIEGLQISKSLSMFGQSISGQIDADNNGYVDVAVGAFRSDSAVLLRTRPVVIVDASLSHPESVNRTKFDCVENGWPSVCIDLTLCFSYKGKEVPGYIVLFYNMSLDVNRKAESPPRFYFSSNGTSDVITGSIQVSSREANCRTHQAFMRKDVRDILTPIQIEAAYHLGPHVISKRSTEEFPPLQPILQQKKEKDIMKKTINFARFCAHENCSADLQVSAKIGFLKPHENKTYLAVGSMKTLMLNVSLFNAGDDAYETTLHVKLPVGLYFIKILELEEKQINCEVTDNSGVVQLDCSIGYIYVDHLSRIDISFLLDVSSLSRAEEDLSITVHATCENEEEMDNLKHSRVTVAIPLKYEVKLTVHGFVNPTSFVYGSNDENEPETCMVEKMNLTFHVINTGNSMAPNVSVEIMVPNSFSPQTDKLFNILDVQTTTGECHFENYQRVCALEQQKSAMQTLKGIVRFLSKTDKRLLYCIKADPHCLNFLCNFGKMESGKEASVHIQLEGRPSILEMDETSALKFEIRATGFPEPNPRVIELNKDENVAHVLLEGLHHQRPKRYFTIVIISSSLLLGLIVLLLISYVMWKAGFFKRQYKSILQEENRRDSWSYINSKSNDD
T1 sequence (P05556 21-798): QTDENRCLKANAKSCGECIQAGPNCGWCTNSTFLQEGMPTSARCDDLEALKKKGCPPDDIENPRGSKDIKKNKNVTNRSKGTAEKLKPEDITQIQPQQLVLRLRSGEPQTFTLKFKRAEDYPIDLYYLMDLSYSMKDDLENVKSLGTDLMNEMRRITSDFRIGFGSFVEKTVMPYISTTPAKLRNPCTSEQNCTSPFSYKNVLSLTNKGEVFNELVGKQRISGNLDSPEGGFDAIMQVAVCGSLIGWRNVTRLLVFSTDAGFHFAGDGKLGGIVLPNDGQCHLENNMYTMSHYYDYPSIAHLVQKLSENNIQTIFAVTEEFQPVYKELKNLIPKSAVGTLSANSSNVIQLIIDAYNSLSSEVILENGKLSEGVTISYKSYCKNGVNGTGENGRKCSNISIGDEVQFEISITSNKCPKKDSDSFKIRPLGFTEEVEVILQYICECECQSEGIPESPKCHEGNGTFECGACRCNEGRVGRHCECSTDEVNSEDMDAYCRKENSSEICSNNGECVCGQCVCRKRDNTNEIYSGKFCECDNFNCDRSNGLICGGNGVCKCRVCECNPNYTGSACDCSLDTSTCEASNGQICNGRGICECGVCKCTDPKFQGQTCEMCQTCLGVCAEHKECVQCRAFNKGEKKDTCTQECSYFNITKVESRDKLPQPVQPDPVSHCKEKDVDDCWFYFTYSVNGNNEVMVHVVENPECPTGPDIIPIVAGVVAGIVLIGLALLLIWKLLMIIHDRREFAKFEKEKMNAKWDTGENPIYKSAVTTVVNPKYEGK

What is called inhibition is the percentage by which the read-out fell short of the control. One may read the IC50 as the point on the concentration scale where inhibition reaches its midpoint. As for `O=C(O)C[C@H](NC(=O)N[C@@H](CCCCNC(=O)OCc1ccccc1)C(=O)NCCc1ccc(O)cc1)c1ccc2c(c1)OCO2` [(9S,13S)-13-(1,3-benzodioxol-5-yl)-9-{[(4-hydroxyphenethyl)amino]carbonyl}-3,11-dioxo-1-phenyl-2-oxa-4,10,12-triazapentadecan-15-oic acid], for the setting “Table 1”, the inhibition at 100 µM was 100% and the 50% inhibitory concentration (IC50) is 2 µM. In the same order, the values of `COC(=O)NCCCC[C@H](NC(=O)N[C@@H](CC(=O)O)c1ccc2c(c1)OCO2)C(=O)NCCc1ccc(O)cc1` [(9S,13S)-13-(1,3-benzodioxol-5-yl)-9-{[(4-hydroxyphenethyl)amino]carbonyl}-3,11-dioxo-2-oxa-4,10,12-triazapentadecan-15-oic acid] are 100% and 6 µM. As to `CSCC[C@@H](CSc1ccccc1)NC(=O)N[C@H](CSc1ccccc1)CC(=O)O` [Compound 8, (3S)-3-{[({(1S)-3-(methylsulfanyl)-1-[(phenylsulfanyl)methyl]propyl}amino)carbonyl]amino}-4-(phenylsulfanyl)butanoic acid], where the note is “Table 1”, the inhibition at 100 µM was 100% and the 50% inhibitory concentration (IC50) is 4 µM.

As for `CCCC[C@@H](CSc1cccc(NCc2ccccc2C)c1)OC(=O)N[C@@H](CC(=O)O)c1ccc2c(c1)OCO2` [Compound 15, (3S)-3-(1,3-benzodioxol-5-yl)-3-{[({(1S)-1-[({3-[(2-methylbenzyl)amino]phenyl}thio)methyl]pentyl}oxy)carbonyl]amino}propanoic acid], for the setting “Table 1”, the inhibition at 100 µM is 100% and the IC50 was 25 µM. In the same order, the values of `CCCC[C@@H](COCc1cccs1)NC(=O)N[C@@H](CC(=O)O)c1ccc2c(c1)OCO2` [Compound 22, (3S)-3-(1,3-benzodioxol-5-yl)-3-{[({(1S)-1-[(2-thienylmethoxy)methyl]pentyl}amino)carbonyl]amino}propanoic acid] are 100% and 1.5 µM. For the compound `O=C(O)C[C@H](NC(=O)N[C@@H](CCCCNC(=O)OCc1ccccc1)C(=O)NCc1cccs1)c1ccc2c(c1)OCO2` [Compound 27, (9S,13S)-13-(1,3-benzodioxol-5-yl)-3,11-dioxo-1-phenyl-9-{[(2-thienylmethyl)amino]carbonyl}-2-oxa-4,10,12-triazapentadecan-15-oic acid], where the note is “Table 1”, the inhibition at 100 µM was 100% and the IC50 was 0.2 µM. Consider `CCCC[C@H](NC(=O)N[C@@H](CC(=O)O)c1ccc2c(c1)OCO2)C(=O)NCc1cccs1` [Compound 34, (3S)-3-(1,3-benzodioxol-5-yl)-3-([((1S)-1-[(2-thienylmethyl)amino]carbonylpentyl)amino]carbonylamino)propanoic acid], for which, under “Table 2”, the IC50 was 0.25 µM.

On to `CCCC[C@H](NC(=O)N[C@@H](CC(=O)O)c1ccc2c(c1)OCO2)C(=O)Nc1ccccc1C(C)=O` [Compound 35, (3S)-3-(1,3-benzodioxol-5-yl)-3-([((1S)-1-[(2-acetylphenyl)amino]carbonylpentyl)amino]carbonylamino)propanoic acid], for which the IC50 (Table 2) was 0.35 µM. On the same count and under the same terms, the figure for `CCCC[C@H](NC(=O)N[C@@H](CC(=O)O)c1ccc2c(c1)OCO2)C(=O)Nc1ccc(C(C)=O)cc1` [Compound 36, 3-(3S)-3-(1,3-benzodioxol-5-yl)-3-([((1S)-1-[(4-acetylphenyl)amino]carbonylpentyl)amino]carbonylamino)propanoic acid] is 1 µM; for `CCCC[C@H](NC(=O)N[C@@H](CC(=O)O)c1ccc2c(c1)OCO2)C(=O)NCc1ccc(NCc2cccs2)cc1` [Compound 37, 3-(3S)-3-(1,3-benzodioxol-5-yl)-3-([((1S)-1-[(4-(2-thienylmethyl)aminobenzyl)amino]carbonylpentyl)amino]carbonylamino)propanoic acid] it is 0.03 µM. As to `CCCC[C@H](NC(=O)N[C@@H](CC(=O)O)c1ccc2c(c1)OCO2)C(=O)NCc1ccc(OCc2ccccc2C)c(OC)c1` [Compound 38, 3-(3S)-3-(1,3-benzodioxol-5-yl)-3-([((1S)-1-[(4-(2-methylbenzyloxy)-3-methoxybenzyl)amino]carbonylpentyl)amino]carbonylamino)propanoic acid], under “Table 2”, the IC50 is 0.02 µM.

`CCCC[C@H](NC(=O)N[C@@H](CC(=O)O)c1ccc2c(c1)OCO2)C(=O)NCc1ccc(NCc2ccccc2C)cc1` [Compound 39]: the IC50 (Table 2) is 0.05 µM. For `CCCC[C@H](NC(=O)N[C@@H](CC(=O)O)c1ccc2c(c1)OCO2)C(=O)NCc1ccc(NCc2nccs2)cc1` [Compound 40, 3(3S)-3-(1,3-benzodioxol-5-yl)-3-([((1S)-1-[(4-(1,3-thiazol-2-ylmethyl)aminobenzyl)amino]carbonylpentyl)amino]carbonylamino)propanoic acid], the IC50 (Table 2) is 0.12 µM. Regarding `CCCC[C@H](NC(=O)N[C@@H](CC(=O)O)c1ccc2c(c1)OCO2)C(=O)NCc1ccc(NCc2ccc(C)s2)cc1` [Compound 41, 3(3S)-3-(1,3-benzodioxol-5-yl)-3-([((1S)-1-[(4-(5-methyl-2-thienylmethyl)aminobenzyl)amino]carbonylpentyl)amino]carbonylamino)propanoic acid], under “Table 2”, the IC50 is 0.1 µM.

Turning to `CCCC[C@H](NC(=O)N[C@@H](CC(=O)O)c1ccc2c(c1)OCO2)C(=O)NCc1ccc(NS(=O)(=O)c2cccs2)cc1` [Compound 42, 3(3S)-3-(1,3-benzodioxol-5-yl)-3-([((1S)-1-[(4-(2-thienylsulfonamido)benzyl)amino]carbonylpentyl)amino]carbonylamino)propanoic acid], the IC50 (Table 2) is 0.06 µM.

`CCCC[C@H](NC(=O)N[C@@H](CC(=O)O)c1ccc2c(c1)OCO2)C(=O)NCc1ccc(NCc2cccc(C)n2)cc1` [Compound 43]: the IC50 (Table 2) was 0.12 µM.

As for `O=C(O)C[C@H](NC(=O)N[C@@H](CC(=O)O)c1ccc2c(c1)OCO2)c1ccc2c(c1)OCO2` [N,N'-bis[(1S)-1-(1,3-benzodioxol-5-yl)-2-carboxyethyl]urea], under “Table 1”, the inhibition at 100 µM was 99% and the IC50 is 7 µM.
